Source: PubChem BioAssay (NCI)
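Compound exposure: 48 hours, 5 concentrations, 96-well plates. GI50 is the concentration that inhibits growth by half. The concentration for full growth arrest is given as TGI.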

Columns and labels:
Experiment in all cases: NCI-60 cell line screen, 48 h
[1] = test system: A498 renal
[2] = test system: MCF7 breast
[3] = test system: CAKI-1 renal
[4] = test system: SK-MEL-5 melanoma
[5] = test system: HOP-62 NSCLC
[6] = test system: SF-295 CNS
[7] = test system: EKVX NSCLC
[8] = test system: DU-145 prostate
[9] = test system: NCI-H460 lung
[10] = test system: 786-0 renal
[11] = test system: SN12C renal
[12] = test system: OVCAR-3 ovarian
[13] = test system: SR leukemia
[14] = test system: K-562 leukemia
[15] = test system: NCI/ADR-RES ovarian
[16] = test system: UO-31 renal
[17] = test system: MDA-MB-231 breast
[18] = test system: SF-268 CNS
[19] = test system: MDA-MB-435
[20] = test system: OVCAR-5 ovarian
[21] = test system: T-47D breast
[22] = test system: NCI-H226 lung
[23] = test system: SK-MEL-2 melanoma
[24] = test system: MDA-MB-468 breast
[25] = test system: M14 melanoma
[26] = test system: NCI-H23 lung
[27] = test system: SNB-19 CNS
[28] = test system: OVCAR-4 ovarian
[29] = test system: SK-OV-3 ovarian
[30] = test system: SW-620 colon
[31] = test system: CCRF-CEM leukemia
[32] = test system: PC-3 prostate
[33] = test system: HS 578T breast
[34] = test system: HCT-15 colon
[35] = test system: U251 CNS
[36] = test system: HL-60(TB) leukemia
[37] = test system: IGROV1 ovarian
[38] = test system: RXF 393 renal
[39] = test system: SNB-75 CNS
[40] = test system: NCI-H522 lung
[41] = test system: HT29 colon
[42] = test system: SK-MEL-28 melanoma
[43] = test system: HCC-2998 colon
[44] = test system: RPMI-8226 leukemia
[45] = test system: LOX IMVI melanoma
[46] = test system: HCT-116 colon
[47] = test system: SF-539 CNS
[48] = test system: KM12 colon
[49] = test system: TK-10 renal
[50] = test system: MOLT-4 leukemia
[51] = test system: OVCAR-8 ovarian
[52] = test system: UACC-62 melanoma
[53] = test system: UACC-257 melanoma
[54] = test system: MALME-3M melanoma
[55] = test system: COLO 205 colon
[56] = test system: ACHN renal
[57] = test system: BT-549 breast
[58] = test system: HOP-92 NSCLC
[59] = test system: A549 NSCLC

SMILES: COc1ccc(/C=C/C(=O)c2ccc(OC)c(S(N)(=O)=O)c2)c(C(F)(F)F)c1
- GI50 [1]: 18.1 µM
- TGI [1]: 37.8 µM
- GI50 [2]: 2.58 µM
- TGI [2]: 10.6 µM
- GI50 [3]: 3.82 µM
- TGI [3]: 14.6 µM
- GI50 [4]: 3.42 µM
- TGI [4]: 15.1 µM
- GI50 [5]: 3.23 µM
- TGI [5]: 14.4 µM
- GI50 [6]: 4.37 µM
- TGI [6]: 22.5 µM
- GI50 [7]: 3.55 µM
- TGI [7]: 16.1 µM
- GI50 [8]: 3.39 µM
- TGI [8]: 12.8 µM
- GI50 [9]: 2.03 µM
- TGI [9]: 6.2 µM
- GI50 [10]: 3.16 µM
- TGI [10]: 14.4 µM
- GI50 [11]: 2.96 µM
- TGI [11]: 11.4 µM
- GI50 [12]: 2.89 µM
- TGI [12]: 10.4 µM
- GI50 [13]: 3 µM
- TGI [13]: 19.5 µM
- GI50 [14]: 3.24 µM
- TGI [14]: 12.6 µM
- GI50 [15]: 2.61 µM
- TGI [15]: 10.6 µM
- GI50 [16]: 5.14 µM
- TGI [16]: 18.4 µM
- GI50 [17]: 2.37 µM
- TGI [17]: 6.14 µM
- GI50 [18]: 3.35 µM
- TGI [18]: 16.5 µM
- GI50 [19]: 4.23 µM
- TGI [19]: 19.6 µM
- GI50 [20]: 2.21 µM
- TGI [20]: 6.33 µM
- GI50 [21]: 4.06 µM
- TGI [21]: 24.7 µM
- GI50 [22]: 2.11 µM
- TGI [22]: 5.44 µM
- GI50 [23]: 3.78 µM
- TGI [23]: 15.9 µM
- GI50 [24]: 2.37 µM
- TGI [24]: 12 µM
- GI50 [25]: 9.19 µM
- TGI [25]: 25.2 µM
- GI50 [26]: 3.4 µM
- TGI [26]: 14.2 µM
- GI50 [27]: 3.95 µM
- TGI [27]: 16.1 µM
- GI50 [28]: 3.47 µM
- TGI [28]: 15.7 µM
- GI50 [29]: 15.5 µM
- TGI [29]: 43 µM
- GI50 [30]: 2.07 µM
- TGI [30]: 6.19 µM
- GI50 [31]: 2.95 µM
- TGI [31]: 9.7 µM
- GI50 [32]: 4.57 µM
- TGI [32]: 18.5 µM
- GI50 [33]: 2.84 µM
- TGI [33]: 19.1 µM
- GI50 [34]: 2.32 µM
- TGI [34]: 6.72 µM
- GI50 [35]: 2.58 µM
- TGI [35]: 7.32 µM
- GI50 [36]: 4.7 µM
- TGI [36]: 30.7 µM
- GI50 [37]: 3.98 µM
- TGI [37]: 15.8 µM
- GI50 [38]: 2.79 µM
- TGI [38]: 11.4 µM
- GI50 [39]: 3.22 µM
- TGI [39]: 15.4 µM
- GI50 [40]: 2.51 µM
- TGI [40]: 14.3 µM
- GI50 [41]: 3.2 µM
- TGI [41]: 11.4 µM
- GI50 [42]: 11.6 µM
- TGI [42]: 23.8 µM
- GI50 [43]: 10.7 µM
- TGI [43]: 24.2 µM
- GI50 [44]: 3.48 µM
- TGI [44]: > 100 µM
- GI50 [45]: 2.31 µM
- TGI [45]: 6.97 µM
- GI50 [46]: 2.41 µM
- TGI [46]: 6.14 µM
- GI50 [47]: 1.8 µM
- TGI [47]: 3.4 µM
- GI50 [48]: 3.89 µM
- TGI [48]: 19 µM
- GI50 [49]: 13.4 µM
- TGI [49]: 29.9 µM
- GI50 [50]: 2.81 µM
- TGI [50]: 13.7 µM
- GI50 [51]: 2.34 µM
- TGI [51]: 6.27 µM
- GI50 [52]: 4.7 µM
- TGI [52]: 18.1 µM
- GI50 [53]: 9.28 µM
- TGI [53]: 21.9 µM
- GI50 [54]: 5.96 µM
- TGI [54]: 20.6 µM
- GI50 [55]: 4.76 µM
- TGI [55]: 28.9 µM
- GI50 [56]: 4.28 µM
- TGI [56]: 15.7 µM
- GI50 [57]: 5.04 µM
- TGI [57]: 16.4 µM
- GI50 [58]: 11 µM
- TGI [58]: 34.8 µM
- GI50 [59]: 2.99 µM
- TGI [59]: 11.4 µM

SMILES: CCCCCCn1c(O)c(N=Nc2nc(-c3cc4ccccc4oc3=O)cs2)c2ccccc21
- GI50 [1]: 19.7 µM
- TGI [1]: 33.9 µM
- GI50 [2]: 12.1 µM
- TGI [2]: 25.9 µM
- GI50 [3]: 17.7 µM
- TGI [3]: 32.2 µM
- GI50 [4]: 9.02 µM
- TGI [4]: 21.1 µM
- GI50 [5]: 16.2 µM
- TGI [5]: 30.3 µM
- GI50 [6]: 14.4 µM
- TGI [6]: 27.5 µM
- GI50 [7]: 9.61 µM
- TGI [7]: 21.4 µM
- GI50 [8]: 16.3 µM
- TGI [8]: 30.1 µM
- GI50 [9]: 15.1 µM
- TGI [9]: 30.1 µM
- GI50 [10]: 17.5 µM
- TGI [10]: 31.4 µM
- GI50 [11]: 17.4 µM
- TGI [11]: 31.2 µM
- GI50 [12]: 16.9 µM
- TGI [12]: 30.8 µM
- GI50 [13]: 7.19 µM
- TGI [13]: 34.8 µM
- GI50 [14]: 15.2 µM
- TGI [14]: 43.8 µM
- GI50 [15]: 15.1 µM
- TGI [15]: 28.9 µM
- GI50 [16]: 14.1 µM
- TGI [16]: 27.1 µM
- GI50 [17]: 11.6 µM
- TGI [17]: 23.8 µM
- GI50 [18]: 17.3 µM
- TGI [18]: 38.6 µM
- GI50 [19]: 17 µM
- TGI [19]: 31.2 µM
- GI50 [20]: 17.1 µM
- TGI [20]: 30.8 µM
- GI50 [21]: 12.7 µM
- TGI [21]: 32.5 µM
- GI50 [22]: 14.9 µM
- TGI [22]: 28.1 µM
- GI50 [23]: 18.3 µM
- TGI [23]: 32.4 µM
- GI50 [24]: 15.7 µM
- TGI [24]: 29.7 µM
- GI50 [25]: 15 µM
- TGI [25]: 28.8 µM
- GI50 [26]: 12.2 µM
- TGI [26]: 24.6 µM
- GI50 [27]: 15.1 µM
- TGI [27]: 28.4 µM
- GI50 [28]: 14.2 µM
- TGI [28]: 27.5 µM
- GI50 [29]: 15.2 µM
- TGI [29]: 29.1 µM
- GI50 [30]: 16.6 µM
- TGI [30]: 31.3 µM
- GI50 [31]: 10.4 µM
- TGI [31]: 44.8 µM
- GI50 [32]: 10.6 µM
- TGI [32]: 23.5 µM
- GI50 [33]: 7.91 µM
- TGI [33]: 52.3 µM
- GI50 [34]: 15.2 µM
- TGI [34]: 28.7 µM
- GI50 [35]: 15.8 µM
- TGI [35]: 29.9 µM
- GI50 [36]: 18.8 µM
- TGI [36]: 45.1 µM
- GI50 [37]: 17.2 µM
- TGI [37]: 30.9 µM
- GI50 [38]: 8.91 µM
- TGI [38]: 21.1 µM
- GI50 [39]: 12 µM
- TGI [39]: 24.8 µM
- GI50 [40]: 4.1 µM
- TGI [40]: 14 µM
- GI50 [41]: 11.6 µM
- TGI [41]: 24.4 µM
- GI50 [42]: 13.9 µM
- TGI [42]: 26.8 µM
- GI50 [43]: 16.2 µM
- TGI [43]: 29.7 µM
- GI50 [44]: 17.2 µM
- TGI [44]: 53.1 µM
- GI50 [45]: 15.5 µM
- TGI [45]: 28.9 µM
- GI50 [46]: 11.1 µM
- TGI [46]: 23.4 µM
- GI50 [47]: 16 µM
- TGI [47]: 29.5 µM
- GI50 [48]: 17.9 µM
- TGI [48]: 33.8 µM
- GI50 [49]: 19.4 µM
- TGI [49]: 33.6 µM
- GI50 [50]: 15.8 µM
- TGI [50]: 42.6 µM
- GI50 [51]: 17.1 µM
- TGI [51]: 32.1 µM
- GI50 [52]: 13.7 µM
- TGI [52]: 26.5 µM
- GI50 [53]: 17.4 µM
- TGI [53]: 31.7 µM
- GI50 [54]: 16.9 µM
- TGI [54]: 30.6 µM
- GI50 [55]: 11 µM
- TGI [55]: 24.9 µM
- GI50 [56]: 16.7 µM
- TGI [56]: 30.3 µM
- GI50 [57]: 15.7 µM
- TGI [57]: 29.2 µM
- GI50 [58]: 11 µM
- TGI [58]: 23.9 µM
- GI50 [59]: 13.6 µM
- TGI [59]: 27.7 µM
